Measured values published in PubChem BioAssay AID179 (DTP/NCI, 2004).
pEC50, pIC50: −log10 of the molar value. Several values for one entry are separate records, joined by “and”; a condition that tells them apart may be missing. Equal values may be shown once. Activity calls are given as the source filed them.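 The calls were made as follows: active = compounds giving half or more protection of infected cells from virus-caused growth loss, again on retest; inactive = the rest.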 Where a SMILES comes first, the peptide text is derived from it. The star is where a group is joined. Boc = CC(C)(C)OC(=O)*

Test system: CEM cells HIV-1 protection, formazan growth assay
Assay: NCI AIDS Antiviral Assay
Conditions: for pIC50: measured here: growth of uninfected CEM cells
How it was run: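 CEM (human) cells, HIV-1 infected vs uninfected, 5-point dosing, formazan growth read-out. Retest threshold 50% protection.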

SMILES | pEC50 | pIC50 | outcome
COc1ccc(-n2c(=O)n(C)c(=O)n2-c2c(C)c(C)c(C)c(C)c2C)cc1 | < 4.00 | 4.73 | 
COc1cc(C(=O)O)ccc1O | < 3.70 | < 3.70 | 
Cc1cc(N(CCC#N)CCC#N)ccc1CC1N=C(c2ccccc2)OC1=O (centres undefined) | < 4.03 | < 4.03 | 
CCOC(=O)c1c(N)sc2c1CCCCC2 | < 4.02 | < 4.02 | 
O=c1[nH]cc(S)c(=O)[nH]1 | 3.82 | < 3.70 | 
O=C1c2c(c3c4ccccc4n(COCCO)c3c3[nH]c4ccccc4c23)C(=O)N1Cc1ccccc1 | < 4.80 | 5.16 | 
N#CC1(c2nc3ccccc3o2)C(=O)C(=O)N(C2C3CC4CC(C3)CC2C4)C(=O)C1=O (centres undefined) | < 3.97 | < 3.97 | 
CSc1nc(NC2OCC(OC(C)=O)C(OC(C)=O)C2OC(C)=O)c2c(n1)OCC2=O (centres undefined) |  |  | inactive
CSc1nc(NC(=O)O)c(N(C(C)=O)C(=O)O)c(=O)n1C | < 3.10 | < 3.10 | 
Brc1cccc(C2SCc3nc4ccccc4n32)c1 (centres undefined) |  |  | inactive
CCCC(=O)OC(C(Cl)(Cl)Cl)P(=O)(OC)OC (centres undefined) | < 3.70 | 4.51 | 
C/C(=C\CNc1ncnc2c1ncn2CCC#N)CO | < 3.70 | < 3.70 | 
NC(=S)NN/C=C(\C=Nc1ccccc1)[N+](=O)[O-] | < 3.45 | 3.75 | 
c1ccc(-n2cnnc2-c2nsc3ccccc23)cc1 | < 4.03 | < 4.03 | 
O=C1OC2(C(F)(F)F)Oc3ccccc3CN2C12CCCCC2 (centres undefined) | < 3.70 | 3.94 | 
C[CH2][Sn]([CH2]C)([O]C(=O)c1ccccc1OC)[O][Sn]([CH2]C)([CH2]C)[O]C(=O)c1ccccc1OC | < 4.41 | 4.53 | 
c1ccc2[nH]c(C3CCCCO3)nc2c1 (centres undefined) | < 3.70 | < 3.70 | 
COC(=O)C1=COC2OC3C(C(C)O)C(=O)OC34C=CC1C24 (centres undefined) | < 3.23 | 4.20 | 
COc1cc2oc(=O)cc(C)c2cc1[N+](=O)[O-] | < 4.27 | 4.66 | 
C=CCC(C(=O)OC)C1(C(=O)OC)c2[nH]c3ccccc3c2CCN1Cc1ccccc1 (centres undefined) | < 4.40 | < 4.40 | 
CC(=O)Oc1c2c(c(O)c3ccccc13)C(n1cnc3c(ncn3C3OC(CO)C4OC(C)(C)OC43)c1=N)CCC2 (centres undefined) | < 4.34 | 4.89 | 
COC1CC(CC2CCC(C)C(C(C)C(=O)O)O2)OC2(OC(C)(C3CCC(C)(C4OC(C5OC(O)(CO)C(C)CC5C)CC4C)O3)CC2C)C1C (centres undefined) | 7.24 | 6.27 | 

SMILES | pEC50 | pIC50 | outcome
Cc1nc2nn(C)cc2c(=O)n1/N=C/c1ccccc1 | < 3.70 | < 3.70 | 
OC(c1cnc2sccn12)C(F)(F)Sc1ccccc1 (centres undefined) | < 3.70 | 4.99 | 
OC(C1CO1)C(O)C1CO1 (centres undefined) | < 3.37 | 6.05 | 
c1ccc(NNCC[P+](c2ccccc2)(c2ccccc2)c2ccccc2)cc1 | < 3.70 | 5.54 | 
O=S(=O)(O)c1cc(O)c2c(O)cc(S(=O)(=O)O)cc2c1 | 3.46 | 3.26 | 
CC(=O)SC(SC(C)=O)SC(C)=O | < 3.68 | 3.81 | 
CCN(CC)c1cc2c3c(c1)CCCN3CCC2 | < 4.00 | 4.02 | 
O=C(NCCc1ccccc1)c1cc2ccc(O)c(O)c2cn1 | < 3.84 | 5.36 and 5.69 | 
CC(SSc1ccc(C(C)(C)C)cc1)c1ccccc1 (centres undefined) | < 3.70 | 5.07 | 
O=C(CC/C(CC(=O)c1ccc(Cl)cc1)=N/O)Nc1ccc(Cl)c(Cl)c1 | < 3.36 | < 3.36 | 
CC(=S)N=Cc1c(O)[nH]c(=O)[nH]c1=O | < 3.70 | < 3.70 | 
CC(C)(C)C1CCC2c3c([nH]c4ccccc34)C3C(=O)N(c4ccccc4Cl)C(=O)C3C2C1 (centres undefined) | < 3.70 | 4.78 | 
CS(=O)(=O)Nc1ccc2ccccc2c1 | < 3.70 | 3.80 | 
CCc1cccc(C)c1NC(=O)C1=C(C)NC(C)=C(C(=O)Nc2c(C)cccc2CC)C1c1ccc([N+](=O)[O-])cc1 | < 4.89 | < 4.89 | 
CC(=O)NC(C)c1ccc(N=NN2CCCC2)cc1 (centres undefined) | < 3.70 | 4.10 | 
Cc1cc(N=C2C=C(Br)C(=O)C(Br)=C2)cc(CN(CC(=O)O)CC(=O)O)c1O | < 4.34 | 6.30 | 
CCc1cc(=O)n(/C(C)=C/c2ccccc2)n1C | < 3.70 | < 3.70 | 
S=c1sscc1-c1ccccc1 | < 3.70 | 3.73 | 
Cc1cc(Oc2cnc(=O)[nH]c2)cs1 | < 3.70 | < 3.70 | 
COc1ccc(CCNC(=O)Cc2cc(OC)c(OC)cc2CO)cc1OC | < 3.70 | 3.71 | 
O=C(Cn1c(=O)oc2ccc(C(=O)c3ccccc3Cl)cc21)c1ccc([N+](=O)[O-])cc1 | < 3.70 | 4.77 | 
O=C1NN=C(c2ccccc2)SC1c1ccccc1 (centres undefined) | < 3.70 | < 3.70 | 

SMILES | pEC50 | pIC50 | outcome
N#CC(C(=O)CCC(=O)Nc1ccc(Cl)cc1)c1ccc(Cl)cc1 (centres undefined) |  |  | inactive
O=S1(=O)C(c2cccc(C(F)(F)F)c2)=C(O)c2cc3ccccc3nc21 |  |  | inactive
N=c1c2ccccc2nnn1-c1ccccc1[N+](=O)[O-] |  |  | inactive
N/N=C(/C(=O)Nc1cccc(Cl)c1)C(C(=O)c1ccc(O)cc1O)C1OC(=O)c2ccccc21 (centres undefined) | < 3.28 | 4.06 | 
COc1ccc(C(=O)CC(=O)c2ccc3ccccc3n2)c(O)c1OC | < 3.70 | 4.89 | 
CC(C)C(C(=O)O)n1[se]c2ccccc2c1=O (centres undefined) | 4.81 | 3.92 | 
NNC(=O)C1C2c3ccccc3C(c3ccccc32)C1C(=O)NN (centres undefined) | < 3.70 | < 3.70 | 
O=C1Sc2ccc(Br)cc2C(=O)N2CSCC12 (centres undefined) | < 3.70 | < 3.70 | 
N#Cc1ccc(NC(=NCC(=O)O)Nc2ccc3ccccc3c2)cc1 |  |  | inactive
COC(=O)c1[nH]cnc1O | < 3.70 | < 3.70 | 
NC1(C(=O)O)C2CC3CC(C2)CC1C3 (centres undefined) |  |  | inactive
Cc1cc(O)c(/C=N/C(N)=S)c(=O)o1 | < 3.70 | < 3.70 | 
CC(C)c1ccc(/C=C(\NC(=O)c2ccccc2)c2nc3ccccc3[nH]2)cc1 | < 4.31 | < 4.31 | 
O=S(O)CCCCSSCc1ccccc1CSSCCCCS(=O)O |  |  | inactive
Cc1cccc(N=NC2Sc3nc4ccccc4n3C2=O)c1 (centres undefined) | < 3.70 | < 3.70 | 
N#Cc1n[nH]n(-c2ccc(Br)cc2)c1=O | < 3.70 | < 3.70 | 
C=CCNC(=S)/N=C/C(C(=O)Nc1ccccc1C)=C(\C)O | < 3.70 | < 3.70 | 
N#C/C1=C(\C#N)N=Cc2ccccc2NCCNc2ccccc2C=N1 | < 3.70 | < 3.70 | 
Cc1ccccc1NC(=O)C1C(=O)N(c2ccccc2C)C(=O)/C1=N\NC(N)=O (centres undefined) | < 4.88 | < 4.88 | 
C[C@@H](NC(=O)c1ccccc1SC(=O)CCCC[n+]1ccccc1)C(N)=O | 6.13 | 3.98 | 
O=C(CCCCCCCCCCc1ccccc1)C1=C(O)C(O)CCC1=O (centres undefined) |  |  | inactive
O=C(CI)Nc1ccc2oc(=O)c(C(=O)O)cc2c1 | < 3.67 | 4.63 | 

SMILES | pEC50 | pIC50 | outcome
CC1=C(C)SC(=C2Sc3c(n(C)c(=O)[nH]c3=O)S2)S1 | < 3.70 | < 3.70 | 
COc1ccccc1N/C(=C\C(=O)C(=O)NC12CC3CC(CC(C3)C1)C2)c1ccccc1 | < 3.70 | < 3.70 | 
O=[N+]([O-])c1ccc(N2CCOS(=O)OCC2)cc1 | < 3.70 | < 3.70 | 
CCOP(=S)(N/N=C\C(C)(C)C1CCCCC1)OCC | < 3.70 | 4.51 | 
CC(=O)C1CCC2C3CC4OCC5(CCC(O)CC45Br)C3CCC12C (centres undefined) | < 3.70 | 4.39 | 
[Pt].c1ccc(P(CCP(CCP(c2ccccc2)c2ccccc2)CCP(c2ccccc2)c2ccccc2)c2ccccc2)cc1 | < 5.25 | 5.53 | 
COC(=O)C(Cc1c[nH]c2ccccc12)NC(=O)C(Cc1c[nH]c2ccccc12)NC(=O)C(Cc1c[nH]c2ccccc12)NC(=O)C(Cc1c[nH]c2ccccc12)NC(=O)C(Cc1c[nH]c2ccccc12)NC(=O)OC(C)(C)C (centres undefined) (Boc-WWWWW-OMe; configuration not given here) | < 3.70 | 4.56 | 
O=C(Nc1ccc(Cl)cc1)c1cc(S(=O)(=O)NC2=NC(c3ccccc3)c3cc(Cl)ccc3N2)c(SSc2cc(Cl)c(C(=O)Nc3ccc(Cl)cc3)cc2S(=O)(=O)NC2=NC(c3ccccc3)c3cc(Cl)ccc3N2)cc1Cl (centres undefined) | < 3.70 | < 3.70 | 
CC(=O)CC(C)=O.CC(=O)CC(C)=O.CC(=O)CC(C)=O.CC(=O)CC(C)=O.[Zr] |  |  | inactive
CCOC(=O)c1cnc(-n2[nH]c(C)c(CCO)c2=O)[nH]c1=O | < 3.70 | < 3.70 | 
CCC(=O)NCC1(c2c[nH]c3ccccc23)SCCS1 |  |  | inactive
O=C1c2ccccc2C(=O)N1[C@@H](Cc1ccccc1)C(=O)n1cccc1CO | < 3.70 | 3.76 | 
NS(=O)(=O)c1ccc(NNc2c3ccccc3nc3c(C(=O)Nc4ccc(S(N)(=O)=O)cc4)cccc23)cc1 | < 3.70 | 4.98 | 
OCC1CC2C=CCC(C2)C1 (centres undefined) |  |  | inactive
CN(C)c1ccc(C2=NC(=S)NC(c3cc(Cl)ccc3O)C2)cc1 (centres undefined) | < 3.70 | 4.52 | 
O=S(=O)(O)C(O)CC=C(C(O)S(=O)(=O)O)C(O)S(=O)(=O)O (centres undefined) | < 3.70 | 4.09 | 
COC(=O)c1ccccc1C1CN=NC12Cc1c(C)ccc(C)c1C2=O (centres undefined) | < 3.70 | 3.81 | 
CCCCCCCCCCCCCCCC1=NCCN1C | < 4.34 | 4.45 | 
COC(=O)[C@]1(NC(=O)c2ccccc2)C[C@H]1C=O | < 3.70 | 3.77 | 
O=C1Cc2c(-c3ccc(Cl)cc3)cc(-c3ccccc3)nc2-c2ccccc2N1 | < 4.00 | 4.54 | 
CN(C)c1n2c3ccc([N+](=O)[O-])cc3n3c(N(C)C)[n+]4ccccc4c3c2c2cccc[n+]12 | < 3.70 | 4.05 | 
Cc1ccc(N(C)S(=O)(=O)c2ccccc2[N+](=O)[O-])cc1 | 4.97 | 4.44 | 
